From publication PMC3154276, “The Effect of the Potential PhoQ Histidine Kinase Inhibitors on Shigella flexneri Virulence” (PLoS ONE, 2011)

Columns and labels:
SF-PhoQc = target: T1, SF-PhoQc (Shigella flexneri, UniProt Q83RR1); experiment: Luminescent Kinase Assay of SF-PhoQc; type: biochemical, S. flexneri 2a 301
T1 construct: The amplified DNA segment encodes PhoQ HK amino acids 251–486; made in house; host or cells: E. coli JM109
Experimental: Luminescent Kinase Assay was used to confirm the effects of compounds 1, 2, 3 and 4 on the enzymatic activity of SF-PhoQc. In the Luminescent Kinase Assay, the putative kinase activity of SF-PhoQc protein was measured by quantifying the amount of ATP that remained in solution after the reaction. […] Next, the effect of each compound on the enzymatic activity of SF-PhoQc was measured.
In the Luminescent Kinase assay, reactions were performed in solid black, flat-bottomed 96-well plates. To determine the IC50 of potential PhoQ HK inhibitors, each compound underwent 2-fold serial dilutions with DMSO (0.1%) and was added into the reaction mixture. The final reaction mixture contained 4 µg of purified SF-PhoQc, 40 mmol/L Tris-Cl (pH 7.5), 16 mmol/L MgCl2, 0.8 mmol/L DTT and different concentration of 100, 50, 25, 12.5, 6.25 or 3.125 µmol/L compound, respectively. After incubation at 30°C for 25 minutes, 3 µmol/L ATP was added, and the reaction was incubated at 30°C for another 25 minutes. Next, an equal volume of Luminescent Kinase Reagent was added to each well, mixed and kept at room temperature for 10 minutes before recording the luminescence reading on a Fluoroskan Ascent FL machine (Thermo Scientific, USA). The rate of phosphorylation inhibition by a compound was calculated with the following formula: [drawing 2]
The IC50 value of each compound was determined using the Origin 7.0 software (OriginLab, Northampton, USA).

[1] = Erythrocyte hemolysis assay; type: cell-based; settings: human erythrocytes (5% suspension), healthy human erythrocytes
Experimental: The hemolytic activity of the potential PhoQ inhibitors was determined using human erythrocytes. The erythrocytes were washed three times with sterile saline and resuspended to 5% cell concentration prior to assay. Then, 200 µl erythrocyte suspensions containing 25 µmol/L or 100 µmol/L concentrations of each potential PhoQ inhibitors were added in triplicate to the wells of the 96-well microtiter plates. Cells without potential PhoQ inhibitors treatment or with 1% Triton-100 treatment were used as the zero or 100% hemolysis control, respectively. The cell suspensions were incubated for 1 hour at 37°C and centrifuged for 10 minutes at 1200×g. Supernatants (100 µl) were transferred to another sterile plate, and the released hemoglobin was measured absorbance readings at 570 nm. […] The hemolysis assay was repeated twice.

T1 sequence (Q83RR1 251-486): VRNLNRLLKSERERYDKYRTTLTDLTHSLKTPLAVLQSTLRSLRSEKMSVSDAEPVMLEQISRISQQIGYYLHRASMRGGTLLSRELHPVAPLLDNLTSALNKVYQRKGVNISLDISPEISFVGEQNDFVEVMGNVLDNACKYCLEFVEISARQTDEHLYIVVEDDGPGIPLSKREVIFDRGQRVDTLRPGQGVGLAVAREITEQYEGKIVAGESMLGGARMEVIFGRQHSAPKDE

CCOc1ccccc1-c1cc(C(=O)N/N=C/c2ccc(OCc3ccccc3)c(OC)c2)c2ccccc2n1 [Compound 2]
IC50 (SF-PhoQc): 48.9 ± 14.7 µM | hemolysis at 1 h, 25 µmol/L [1]: < 0.1% | hemolysis at 1 h, 100 µmol/L [1]: < 0.1%

O=C(Nc1ccc(C2(c3cccc(NC(=O)c4cccc5ccccc45)c3)c3ccccc3C(=O)c3ccccc32)cc1)c1ccc2ccccc2c1 [Compound 1]
IC50 (SF-PhoQc): 69.37 ± 0.56 µM | hemolysis at 1 h, 25 µmol/L [1]: < 0.1% | hemolysis at 1 h, 100 µmol/L [1]: < 0.1%

O=C(O)c1ccc(Cl)c(-c2ccc(/C=N/NC(=O)c3ccc(Br)cc3)o2)c1 [Compound 3]
IC50 (SF-PhoQc): 7.99 ± 5.61 µM | hemolysis at 1 h, 25 µmol/L [1]: < 0.1% | hemolysis at 1 h, 100 µmol/L [1]: < 0.1%

O=C(O)c1cc(-c2ccc(-c3ccccc3Cl)o2)nc2ccc3ccccc3c12 [Compound 4]
IC50 (SF-PhoQc): 27.2 ± 15.4 µM | hemolysis at 1 h, 25 µmol/L [1]: < 0.1% | hemolysis at 1 h, 100 µmol/L [1]: < 0.1%
